According to patent US6831069B2, “Pyrrolo[2,3-d]pyrimidine nucleoside analogs” (priority 1999, dated 2004):
Structures can show the parent of a compound that is named as a salt.

Assays:
[1] = test system: B10.PL (H-2u) mice; test: Murine EAE model of multiple sclerosis, prophylactic treatment; type: in vivo, mouse; conditions: 0.1 mg/kg IP daily for 10d before induction of disease
[2] = test system: BALB/c and C57BL/6 lymph node CD4+ T cells; test: Generation of murine Th1 cells, IL-4 and IFNγ ELISA after restimulation; type: cell-based, mouse; conditions: murine CD4+ cells induced with IL-2, IFN-γ, IL-12; BALB/c and C57BL/6; versus without compound
[3] = test system: PHA stimulated T-cells; test: Type 1 and Type 2 cytokines in PHA stimulated T-cells; type: cell-based, human; conditions: FIG. 24
[4] = test system: Human Prostate cancer cells, HTB81; test: VEGF secretion, VEGF Elisa Assay; type: cell-based; conditions: 72 hrs treatment
Procedure: The compounds 23a(5′-R) and 23a(5′-S) are potent in inhibition of secretion of Vascular Endothelial Growth Factor (VEGF) from Human Prostate cancer cells, HTB81. VEGF is recognized as angiogenesis marker since this molecule is crucial for migration and growth of endothelial cells and microvessel formation in vivo. […] The compounds were applied just after plating for 72 hrs. After that, the medium was collected and the level of VEGF was measured using VEGF Elisa Assay (R & D Systems) and expressed as pg of VEGF per ml of the medium.

[5] = test system: Human Prostate cancer cells, HTB81; test: IL-8 secretion, IL-8 Elisa Assay; type: cell-based; conditions: concentrations indicated in FIG. 12
Source text: The compound 23a(5′-R) and 23a(5′-S) indicate an inhibitory effect on secretion of Interleukin-8 (IL-8) from human prostate cancer cells, HTB81. IL-8 belongs to the class of chemo-attractant chemokines (type alpha), which are involved in inflammation processes due to attraction of neutrophils. Chemokines, in general, are known to be produced by various types of cancer. It is proven in several studies that inhibition of chemokine production by cancer cells is beneficial for the host. […] The medium collected from the culture was analyzed for IL-8 level using IL-8 Elisa Assay from R&D Systems.

[6] = test system: activated human T cells; test: Analysis of cytokine mRNA (RT-PCR, Southern blot) in PMA-ION activated human T cells; type: cell-based; conditions: experiment corresponding to FIG. 18; FIG. 26

N=C(N)c1cn([C@@H]2O[C@H](CO)[C@H](O)C2O)c2nc[nH]c(=O)c12 (stereo partly drawn) [ICN 17739, 7-(β-D-ribofuranosyl)pyrrolo[2,3-d]-4-pyrimidone-5-carboxamidine Hydrochloride]
MBP-specific Th2 cytokine producing T-cells [1]: induces MBP-specific Th2 cytokine producing T-cells | onset of murine EAE [1]: clearly delayed onset | IFN-γ production of induced Th1 cells [2]: significantly decreased | IL-4 production of induced Th1 cells [2]: significantly increased | Type 1 cytokines [3]: significant decrease | production of Type 2 cytokines [3]: significant increase

C[C@H](O)[C@H]1O[C@@H](n2cc(C#N)c3c(N)ncnc32)[C@H](O)[C@@H]1O [23a(5′-S), 4-Amino-5-cyano-7-(5(S)-C-methyl-β-D-ribofuranosyl)pyrrolo[2,3-d]pyrimidine]
secretion of VEGF [4]: inhibit secretion of VEGF in a dose-dependent manner | secretion of IL-8 [5]: inhibit secretion of IL-8 in a dose-dependent manner

C[C@@H](O)[C@H]1O[C@@H](n2cc(C#N)c3c(N)ncnc32)[C@H](O)[C@@H]1O [23a(5′-R), 4-Amino-5-cyano-7-(5(R)-C-methyl-β-D-ribofuranosyl)pyrrolo[2,3-d]pyrimidine]
secretion of VEGF [4]: inhibit secretion of VEGF in a dose-dependent manner | secretion of IL-8 [5]: inhibit secretion of IL-8 in a dose-dependent manner

Cl.N=C(N)c1cn([C@@H]2O[C@H](CO)[C@@H](O)[C@H]2O)c2nc[nH]c(=O)c12 [ICN 17739, 7-(β-D-ribofuranosyl)pyrrolo[2,3-d]-4-pyrimidone-5-carboxamidine Hydrochloride]
anti-inflammatory and anti-proliferative responses (RNA expression) [6]: induction of anti-inflammatory and anti-proliferative responses
